Experimental data taken from BindingDB's records for doi:10.1016/s0028-3908(00)00035-6 (University of Cambridge, 2000).
Values joined by “and” are separate entries in the source; they are usually repeats but may differ in a detail not shown here. Equal entries are not always repeated.

Tests used:
[1] = molecular target: Somatostatin receptor type 5 (Homo sapiens, UniProt P35346)
[2] = molecular target: Somatostatin receptor type 3 (Homo sapiens, UniProt P32745)
[3] = molecular target: Somatostatin receptor type 2 (Homo sapiens, UniProt P30874)
Sequence of Somatostatin receptor type 2 (Homo sapiens, UniProt P30874) (P30874 whole entry): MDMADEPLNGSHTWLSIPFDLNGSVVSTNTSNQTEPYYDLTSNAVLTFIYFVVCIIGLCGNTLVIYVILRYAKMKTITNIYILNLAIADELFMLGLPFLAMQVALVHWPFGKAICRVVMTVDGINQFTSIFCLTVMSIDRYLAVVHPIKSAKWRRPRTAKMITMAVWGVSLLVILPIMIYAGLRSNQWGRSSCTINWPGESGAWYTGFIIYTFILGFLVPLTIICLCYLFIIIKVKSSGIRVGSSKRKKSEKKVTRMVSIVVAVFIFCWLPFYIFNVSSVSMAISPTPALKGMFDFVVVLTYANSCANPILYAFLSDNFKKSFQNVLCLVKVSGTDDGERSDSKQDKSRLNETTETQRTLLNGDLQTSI

[4] = molecular target: Somatostatin receptor type 4 (Homo sapiens, UniProt P31391)
Sequence of Somatostatin receptor type 4 (P31391 whole entry): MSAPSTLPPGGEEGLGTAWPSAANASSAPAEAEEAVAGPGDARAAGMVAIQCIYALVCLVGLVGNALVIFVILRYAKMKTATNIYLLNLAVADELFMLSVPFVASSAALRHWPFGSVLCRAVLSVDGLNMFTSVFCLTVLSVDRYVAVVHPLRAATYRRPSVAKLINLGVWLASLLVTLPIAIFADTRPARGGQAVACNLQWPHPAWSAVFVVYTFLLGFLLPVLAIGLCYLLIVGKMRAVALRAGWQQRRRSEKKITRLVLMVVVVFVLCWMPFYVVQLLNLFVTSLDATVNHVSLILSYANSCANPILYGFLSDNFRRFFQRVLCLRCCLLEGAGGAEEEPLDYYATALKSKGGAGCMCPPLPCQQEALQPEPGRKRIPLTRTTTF

[5] = molecular target: Somatostatin receptor type 2 (Rattus norvegicus, UniProt P30680)
Sequence of Somatostatin receptor type 2 (Rattus norvegicus, UniProt P30680) (P30680 whole entry): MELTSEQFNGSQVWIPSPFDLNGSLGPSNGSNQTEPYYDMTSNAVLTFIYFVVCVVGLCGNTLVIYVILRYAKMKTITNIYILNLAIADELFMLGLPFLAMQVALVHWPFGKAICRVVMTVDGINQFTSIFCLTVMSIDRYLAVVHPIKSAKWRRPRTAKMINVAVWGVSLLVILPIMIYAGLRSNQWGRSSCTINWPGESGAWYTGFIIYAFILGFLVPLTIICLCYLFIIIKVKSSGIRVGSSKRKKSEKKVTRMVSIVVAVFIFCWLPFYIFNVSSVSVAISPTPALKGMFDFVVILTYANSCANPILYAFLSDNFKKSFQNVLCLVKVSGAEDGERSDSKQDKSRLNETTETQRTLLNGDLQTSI

Sequence of Somatostatin receptor type 5 (P35346 whole entry): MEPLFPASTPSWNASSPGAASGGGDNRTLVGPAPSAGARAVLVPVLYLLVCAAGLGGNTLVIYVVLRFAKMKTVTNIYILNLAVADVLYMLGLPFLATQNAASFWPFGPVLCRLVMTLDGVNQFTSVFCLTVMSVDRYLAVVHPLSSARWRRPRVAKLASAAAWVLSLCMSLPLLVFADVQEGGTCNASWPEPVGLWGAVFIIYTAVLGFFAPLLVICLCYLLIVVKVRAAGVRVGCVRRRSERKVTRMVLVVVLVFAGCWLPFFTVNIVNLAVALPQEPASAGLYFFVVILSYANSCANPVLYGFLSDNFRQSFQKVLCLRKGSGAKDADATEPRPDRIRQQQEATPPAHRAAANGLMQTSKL
Sequence of Somatostatin receptor type 3 (P32745 whole entry): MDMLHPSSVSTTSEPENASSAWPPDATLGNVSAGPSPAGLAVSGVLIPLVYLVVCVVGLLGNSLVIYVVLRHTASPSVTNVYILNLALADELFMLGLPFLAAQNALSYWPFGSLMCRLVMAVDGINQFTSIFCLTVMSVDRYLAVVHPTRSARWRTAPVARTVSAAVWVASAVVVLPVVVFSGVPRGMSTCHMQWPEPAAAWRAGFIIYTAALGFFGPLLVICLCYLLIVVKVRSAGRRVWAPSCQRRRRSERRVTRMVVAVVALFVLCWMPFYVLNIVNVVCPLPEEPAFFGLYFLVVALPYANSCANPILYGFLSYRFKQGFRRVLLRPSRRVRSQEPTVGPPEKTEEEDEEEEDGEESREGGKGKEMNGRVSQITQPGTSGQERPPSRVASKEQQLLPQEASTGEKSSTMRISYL

Ki [1]: 331 nM | Ki [2]: 851 nM | Ki [3]: 2.63 nM | Ki [4]: 1740 nM | Ki [5]: 7.94 nM and 4.47 nM
Compound: CC(=O)N[C@@H](Cc1ccc([N+](=O)[O-])cc1)C(=O)N[C@@H]1CSSC[C@@H](C(=O)N[C@H](Cc2ccc(O)cc2)C(N)=O)NC(=O)[C@H]([C@@H](C)O)NC(=O)[C@H](CCCCN)NC(=O)[C@@H](Cc2c[nH]c3ccccc23)NC(=O)[C@H](Cc2ccc(O)cc2)NC1=O [CAS_183658-72-2]
